Source: publication PMC11855827, “High-Throughput Screening of Five Compound Libraries for Anthelmintic Activity and Toxicity Leads to the Discovery of Two Flavonoid Compounds” (International Journal of Molecular Sciences, 2025)
“And” between values parts separate entries of the source, which are not always exact repeats. Equal entries are not always repeated. Where two headings read alike, the source gives them in different places.

Tested on: C. elegans
[1] = Table S2, C. elegans SS assay, 110 μM, averages of 4 data points
[2] = Table S2, C. elegans SS assay, 110 μM, 24 h, averages of 4 data points

## O=C(/C=C\c1ccc(O)c(O)c1)N[C@@H](Cc1ccc(O)c(O)c1)C(=O)O [Clovamide]
[1]
  Percentage of motility inhibition 0 h: 2%
[2]
  Percentage of motility inhibition 24 h: 0%

## Cc1onc(-c2ccccc2Cl)c1C(=O)N[C@@H]1C(=O)N2[C@@H]1SC(C)(C)[C@@H]2C(=O)[O-].O.[Na+] [Cloxacillin (sodium monohydrate)]
[1]
  Percentage of motility inhibition 0 h: 14%
[2]
  Percentage of motility inhibition 24 h: 4%

## C[C@@]12C[C@@H](c3ccoc3)OC(=O)[C@@H]1CC[C@]1(C)[C@H]2[C@@H]2C=C[C@@]1(O)C(=O)O2 [Columbin]
[1]
  Percentage of motility inhibition 0 h: 0%
[2]
  Percentage of motility inhibition 24 h: 1%

## C=C[C@]1(C)C=C2CC[C@H]3[C@@](C)(CCC[C@@]3(C)C(=O)O)[C@@H]2CC1 [Continentalic acid]
[1]
  Percentage of motility inhibition 0 h: 36%
[2]
  Percentage of motility inhibition 24 h: 24%

## O=S(=O)([O-])O.c1c2c(cc3c1OCO3)-c1cc3ccc4c(c3c[n+]1CC2)OCO4 [Coptisine (Sulfate)]
[1]
  Percentage of motility inhibition 0 h: 0%
[2]
  Percentage of motility inhibition 24 h: 9%

## [Cl-].c1c2c(cc3c1OCO3)-c1cc3ccc4c(c3c[n+]1CC2)OCO4 [Coptisine (chloride)]
[1]
  Percentage of motility inhibition 0 h: 1%
[2]
  Percentage of motility inhibition 24 h: 6%

## C=C[C@H]1[C@H](O[C@@H]2O[C@H](CO)[C@@H](O)[C@H](O)[C@H]2O)OC=C(C(=O)OC)[C@H]1CCOC(=O)c1cc(O)c(O)c(O)c1 [Cornuside]
[1]
  Percentage of motility inhibition 0 h: 0%
[2]
  Percentage of motility inhibition 24 h: 24%

## COc1cc2c(cc1OC)[C@H]1[C@@H](C)c3ccc(OC)c(OC)c3CN1CC2 [Corydaline]
[1]
  Percentage of motility inhibition 0 h: 0%
[2]
  Percentage of motility inhibition 24 h: 8%

## CC(C)=CCC/C(C)=C/Cc1cc(-c2coc3cc(O)ccc3c2=O)ccc1O [Corylifol A]
[1]
  Percentage of motility inhibition 0 h: 40%
[2]
  Percentage of motility inhibition 24 h: 4%

## CN1Cc2c(ccc3c2OCO3)[C@@]2(C)[C@@H](O)Cc3cc4c(cc3[C@@H]12)OCO4 [Corynoline]
[1]
  Percentage of motility inhibition 0 h: 13%
[2]
  Percentage of motility inhibition 24 h: 0%

## COc1cc2c(cc1O)CCN1Cc3c(ccc(OC)c3OC)CC21 (stereo not drawn) [Corypalmine]
[1]
  Percentage of motility inhibition 0 h: 17%
[2]
  Percentage of motility inhibition 24 h: 16%

## CC(/C=C/C=C(\C)C(=O)[O-])=C\C=C\C=C(C)\C=C\C=C(/C)C(=O)[O-].[Na+].[Na+] [Crocetin (disodium)]
[1]
  Percentage of motility inhibition 0 h: 0%
[2]
  Percentage of motility inhibition 24 h: 5%

## CC(/C=C/C=C(\C)C(=O)O)=C\C=C\C=C(C)\C=C\C=C(/C)C(=O)O.CNC[C@H](O)[C@@H](O)[C@H](O)[C@H](O)CO.CNC[C@H](O)[C@@H](O)[C@H](O)[C@H](O)CO [Crocetin (meglumine)]
[1]
  Percentage of motility inhibition 0 h: 6%
[2]
  Percentage of motility inhibition 24 h: 10%

## CC(/C=C/C=C(\C)C(=O)O[C@@H]1O[C@H](CO)[C@@H](O)[C@H](O)[C@H]1O)=C\C=C\C=C(C)\C=C\C=C(/C)C(=O)O[C@@H]1O[C@H](CO[C@@H]2O[C@H](CO)[C@@H](O)[C@H](O)[C@H]2O)[C@@H](O)[C@H](O)[C@H]1O [Crocin II]
[1]
  Percentage of motility inhibition 0 h: 27%
[2]
  Percentage of motility inhibition 24 h: 1%

## Nc1nc(=O)[nH]c2c1ncn2[C@@H]1O[C@H](CO)[C@@H](O)[C@H]1O [Crotonoside]
[1]
  Percentage of motility inhibition 0 h: 0%
[2]
  Percentage of motility inhibition 24 h: 0%

## CC(=O)OC(C)(C)CCC(=O)[C@](C)(O)[C@H]1[C@H](O)C[C@@]2(C)[C@@H]3CC=C4[C@@H](C[C@H](O)[C@@H](O)C4(C)C)[C@]3(C)C(=O)C[C@]12C [Cucurbitacin IIa]
[1]
  Percentage of motility inhibition 0 h: 0%
[2]
  Percentage of motility inhibition 24 h: 6%

## CC(C)(O)CCC(=O)[C@](C)(O)C1[C@H](O)C[C@@]2(C)[C@@H]3CC=C4[C@@H](C[C@H](O)[C@@H](O)C4(C)C)[C@]3(C)C(=O)C[C@]12C (stereo partly drawn) [Cucurbitacin IIb]
[1]
  Percentage of motility inhibition 0 h: 7%
[2]
  Percentage of motility inhibition 24 h: 43%

## CC(=O)CC[C@@H]1[C@H]2CC(=C(C)C)C(=O)C[C@@]12C [Curcumenone]
[1]
  Percentage of motility inhibition 0 h: 3%
[2]
  Percentage of motility inhibition 24 h: 0%

## C=C1C[C@@]2(O)O[C@@]3(C[C@H]2C(C)C)[C@@H](C)CC[C@@H]13 [Curcumol]
[1]
  Percentage of motility inhibition 0 h: 8%
[2]
  Percentage of motility inhibition 24 h: 12%

## C/C1=C/CC[C@H](C)C(=O)C[C@@H](C(C)C)C(=O)C1 [Curdione]
[1]
  Percentage of motility inhibition 0 h: 7%
[2]
  Percentage of motility inhibition 24 h: 22%

## COc1cc2c(cc1O)C1Cc3ccc(OC)c(O)c3C[N+]1(C)CC2.[Cl-] (stereo not drawn) [Cyclanoline (chloride)]
[1]
  Percentage of motility inhibition 0 h: 7%
[2]
  Percentage of motility inhibition 24 h: 12%

## CCC(C)C1NC(=O)C(C)NC1=O (stereo not drawn) [Cyclo(Ile‐Ala)]
[1]
  Percentage of motility inhibition 0 h: 16%
[2]
  Percentage of motility inhibition 24 h: 22%

## CC(C)(O)[C@@H]1CC[C@](C)([C@H]2[C@@H](O)C[C@@]3(C)[C@@H]4C[C@H](O)[C@H]5C(C)(C)[C@@H](O)CC[C@@]56C[C@@]46CC[C@]23C)O1 [Cycloastragenol]
[1]
  Percentage of motility inhibition 0 h: 8%
[2]
  Percentage of motility inhibition 24 h: 31%

## CC(C)(O)[C@H]1CC[C@@](C)([C@H]2[C@@H](O)C[C@@]3(C)[C@@H]4C[C@H](O)[C@H]5C(C)(C)[C@@H](O)CC[C@@]56C[C@@]46CC[C@]23C)O1 [Cyclogalegenin]
[1]
  Percentage of motility inhibition 0 h: 22%
[2]
  Percentage of motility inhibition 24 h: 9%

## CN[C@@H](C)[C@H]1[C@H](O)C[C@@]2(C)[C@@H]3CC[C@H]4C(C)(C)[C@@H](NC)CC[C@@]45C[C@@]35CC[C@]12C [Cyclovirobuxine D]
[1]
  Percentage of motility inhibition 0 h: 20%
[2]
  Percentage of motility inhibition 24 h: 0%

## O=c1cc(-c2ccc(O)c(O)c2)oc2cc(O[C@@H]3O[C@H](CO)[C@@H](O)[C@H](O)[C@H]3O)cc(O)c12 [Cynaroside]
[1]
  Percentage of motility inhibition 0 h: 20%
[2]
  Percentage of motility inhibition 24 h: 0%

## Cl.NCCS [Cysteamine (hydrochloride)]
[1]
  Percentage of motility inhibition 0 h: 23%
[2]
  Percentage of motility inhibition 24 h: 6%

## O=c1cccc2n1C[C@@H]1CNC[C@H]2C1 [Cytisinicline]
110 µM
  Percentage of motility inhibition 24 h: 0% and 3%

## O=C(CO)[C@@H](O)[C@H](O)[C@H](O)CO [D-Fructose]
[2]
  Percentage of motility inhibition 24 h: 15%

## CC(C)(CO)[C@@H](O)C(=O)NCCC(=O)[O-].CC(C)(CO)[C@@H](O)C(=O)NCCC(=O)[O-].[Ca+2] [D-Pantothenic acid (hemicalcium salt)]
[1]
  Percentage of motility inhibition 0 h: 48%
[2]
  Percentage of motility inhibition 24 h: 1%

## CC(C)(CO)[C@@H](O)C(=O)NCCC(=O)[O-].[Na+] [D-Pantothenic acid (sodium)]
[1]
  Percentage of motility inhibition 0 h: 1%
[2]
  Percentage of motility inhibition 24 h: 4%
